Source: EP0973746B1, “SUBSTITUTED 3-CYANO QUINOLINES” (Wyeth Holdings Corporation, priority 1997, dated 1998)
Converted amounts (≈) assume the structure as drawn. Where two headings read alike, the source gives them in different places.

What was measured:
[1] = system: SKBR3; assay: Inhibition of cell growth by incorporation of [3H]-thymidine, SKBR3; format: cell-based, human
Experimental: (§1) Representative compounds of this invention were evaluated for their ability to inhibit the growth of the cell lines described below in vitro. The inhibition is quantitated by measuring the decrease in the incorporation of radio-labeled thymidine when the cells are grown in the presence of the inhibitor. […] Cells were routinely grown in a humidified incubator in 5% CO2 in air.
(§2) Cells were seeded at 10,000 cells/well in 96 well plates in complete media and allowed to grow to log phase. At this stage the complete media was replaced with media containing 0.5% FBS (for cells growing in 10% FBS) or media lacking epidermal growth factor (EGF) (for cells growing in serum free media). […] Media with test compound was then removed and complete media was added back. The cells were allowed to grow for 18 hours. This is followed by incubation in [^3H]thymidine (1mCi/ml in serum/EGF media) for 4 hours. Cells were lysed in 0.5 M NaOH for at least 30 min at 37°C and radioactivity analyzed.
(§3) The % inhibition of the compound evaluated was determined for at least three different concentrations and the IC50 value evaluated from the dose response curve. […] CPM(control) is in units of counts per minute and is a number expressing the amount of [^3H]thymidine incorporated onto the DNA when cells are grown in the absence of test compound as measured by liquid scintillation counting.

[2] = system: NHEK; assay: Inhibition of cell growth by incorporation of [3H]-thymidine, NHEK; format: cell-based, human; conditions: [3H]-thymidine incorporation, read-out: IC50 NHEK
Experimental: as §1, §2, §3

[3] = system: NEU-3T3; assay: Inhibition of cell growth by incorporation of [3H]-thymidine, Neu-3T3; format: cell-based, mouse; conditions: [3H]-thymidine incorporation
Experimental: as §1, §2, §3

[4] = system: A431; assay: Inhibition of cell growth by incorporation of [3H]-thymidine, A431; format: cell-based, human; conditions: [3H]-thymidine incorporation, A431, read-out: IC50 A431
[5] = system: SW948; assay: Inhibition of cancer cell growth as measured by cell number, SW948; format: cell-based; conditions: Homo sapiens, SW948; cell number, Sulforhodamine B, 48 hours exposure; Table 5; read-out: IC50 SW948
[6] = system: A27805; assay: Inhibition of cancer cell growth as measured by cell number, A27805; format: cell-based; conditions: Homo sapiens; cell number, Sulforhodamine B, 48 hours exposure; Table 4; read-out: IC50 A27805
[7] = system: HL60; assay: Inhibition of cancer cell growth as measured by cell number, HL60; format: cell-based; conditions: Homo sapiens, HL-60; cell number, Sulforhodamine B, 48 hours exposure; Table 7; read-out: IC50 HL60
[8] = system: A431; assay: Inhibition of cancer cell growth as measured by cell number, A431; format: cell-based, human; conditions: Homo sapiens, A-431, 48 h, cell number, Sulforhodamine B, 48 hours exposure, read-out: IC50 A431;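 note: human A431 line, picked because it overexpresses epidermal growth factor receptor (EGFR)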
Text: (§4) The cell lines were chosen since they overexpressed epidermal growth factor receptor (EGFR) (i.e. A431) or HER2/neu (SKBR3), or had little to no expression of the these receptors (SW620, LOX, MCF7).

[9] = system: PC3; assay: Inhibition of cancer cell growth as measured by cell number, PC3; format: cell-based; conditions: Homo sapiens, PC-3; cell number, Sulforhodamine B, 48 hours exposure; Table 7; read-out: IC50 PC3
[10] = system: LX1; assay: Inhibition of cancer cell growth as measured by cell number, LX1; format: cell-based; conditions: Homo sapiens, LX-1; cell number, Sulforhodamine B, 48 hours exposure; Table 6; read-out: IC50 LX1
[11] = system: CCL228; assay: Inhibition of cancer cell growth as measured by cell number, CCL228; format: cell-based; conditions: Homo sapiens; cell number, Sulforhodamine B, 48 hours exposure; Table 5; read-out: IC50 CCL228
[12] = system: HCT15; assay: Inhibition of cancer cell growth as measured by cell number, HCT15; format: cell-based; conditions: Homo sapiens, HCT-15; cell number, Sulforhodamine B, 48 hours exposure; Table 5; read-out: IC50 HCT15
[13] = system: LS174T; assay: Inhibition of cancer cell growth as measured by cell number, LS174T; format: cell-based; conditions: Homo sapiens, cell number, Sulforhodamine B, 48 hours exposure, Table 5, read-out: IC50 LS174T
[14] = system: CX1; assay: Inhibition of cancer cell growth as measured by cell number, CX1; format: cell-based; conditions: Homo sapiens, CX-1; cell number, Sulforhodamine B, 48 hours exposure; Table 4; read-out: IC50 CX1
[15] = system: MCF7; assay: Inhibition of cancer cell growth as measured by cell number, MCF7; format: cell-based, human; conditions: Homo sapiens, MCF7, 48 h, cell number, Sulforhodamine B, 48 hours exposure, read-out: IC50 MCF7;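 note: MCF7 was included as a line with little or no EGFR or HER2/neu expression, in contrast to the receptor-overexpressing lines of the panel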
Text: as §4

[16] = system: SW620; assay: Inhibition of cancer cell growth as measured by cell number, SW620; format: cell-based, human; conditions: Homo sapiens, SW-620, 48 h, cell number, Sulforhodamine B, 48 hours exposure, read-out: IC50 SW620;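 note: SW620 was included as a cell line with little or no EGFR or HER2/neu expression, in contrast to receptor-overexpressing lines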
Text: as §4

[17] = system: CCRF-CFM; assay: Inhibition of cancer cell growth as measured by cell number, CCRF-CFM; format: cell-based; conditions: Homo sapiens; cell number, Sulforhodamine B, 48 hours exposure; Table 7; read-out: IC50 CCRF-CFM
[18] = system: DU145; assay: Inhibition of cancer cell growth as measured by cell number, DU145; format: cell-based; conditions: Homo sapiens, DU-145; cell number, Sulforhodamine B, 48 hours exposure; Table 7; read-out: IC50 DU145
[19] = system: T47D; assay: Inhibition of cancer cell growth as measured by cell number, T47D; format: cell-based; conditions: Homo sapiens, cell number, Sulforhodamine B, 48 hours exposure, Table 6, read-out: IC50 T47D
[20] = system: MIP; assay: Inhibition of cancer cell growth as measured by cell number, MIP; format: cell-based; conditions: Homo sapiens; cell number, Sulforhodamine B, 48 hours exposure; Table 4; read-out: IC50 MIP
[21] = system: A549; assay: Inhibition of cancer cell growth as measured by cell number, A549; format: cell-based; conditions: Homo sapiens, A549; cell number, Sulforhodamine B, 48 hours exposure; Table 6; read-out: IC50 A549
[22] = system: LNCAP; assay: Inhibition of cancer cell growth as measured by cell number, LNCAP; format: cell-based; conditions: Homo sapiens, cell number, Sulforhodamine B, 48 hours exposure, Table 7, read-out: IC50 LNCAP
[23] = system: B7474; assay: Inhibition of cancer cell growth as measured by cell number, B7474; format: cell-based; conditions: Homo sapiens; cell number, Sulforhodamine B, 48 hours exposure; Table 6; read-out: IC50 B7474
[24] = system: LOX; assay: Inhibition of cancer cell growth as measured by cell number, LOX; format: cell-based, human; conditions: Homo sapiens, LOX, 48 h, cell number, Sulforhodamine B, 48 hours exposure, read-out: IC50 LOX;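 note: LOX cells served as a line with low or absent EGFR and HER2/neu expression, in contrast to receptor-overexpressing lines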
Text: as §4

[25] = system: NEC; assay: Inhibition of cancer cell growth as measured by cell number, NEC; format: cell-based; conditions: Homo sapiens; cell number, Sulforhodamine B, 48 hours exposure; Table 6; read-out: IC50 NEC
[26] = target: epidermal growth factor receptor kinase (Homo sapiens, UniProt P00533); assay: biochemical
Chain of epidermal growth factor receptor kinase (P00533 25-1210): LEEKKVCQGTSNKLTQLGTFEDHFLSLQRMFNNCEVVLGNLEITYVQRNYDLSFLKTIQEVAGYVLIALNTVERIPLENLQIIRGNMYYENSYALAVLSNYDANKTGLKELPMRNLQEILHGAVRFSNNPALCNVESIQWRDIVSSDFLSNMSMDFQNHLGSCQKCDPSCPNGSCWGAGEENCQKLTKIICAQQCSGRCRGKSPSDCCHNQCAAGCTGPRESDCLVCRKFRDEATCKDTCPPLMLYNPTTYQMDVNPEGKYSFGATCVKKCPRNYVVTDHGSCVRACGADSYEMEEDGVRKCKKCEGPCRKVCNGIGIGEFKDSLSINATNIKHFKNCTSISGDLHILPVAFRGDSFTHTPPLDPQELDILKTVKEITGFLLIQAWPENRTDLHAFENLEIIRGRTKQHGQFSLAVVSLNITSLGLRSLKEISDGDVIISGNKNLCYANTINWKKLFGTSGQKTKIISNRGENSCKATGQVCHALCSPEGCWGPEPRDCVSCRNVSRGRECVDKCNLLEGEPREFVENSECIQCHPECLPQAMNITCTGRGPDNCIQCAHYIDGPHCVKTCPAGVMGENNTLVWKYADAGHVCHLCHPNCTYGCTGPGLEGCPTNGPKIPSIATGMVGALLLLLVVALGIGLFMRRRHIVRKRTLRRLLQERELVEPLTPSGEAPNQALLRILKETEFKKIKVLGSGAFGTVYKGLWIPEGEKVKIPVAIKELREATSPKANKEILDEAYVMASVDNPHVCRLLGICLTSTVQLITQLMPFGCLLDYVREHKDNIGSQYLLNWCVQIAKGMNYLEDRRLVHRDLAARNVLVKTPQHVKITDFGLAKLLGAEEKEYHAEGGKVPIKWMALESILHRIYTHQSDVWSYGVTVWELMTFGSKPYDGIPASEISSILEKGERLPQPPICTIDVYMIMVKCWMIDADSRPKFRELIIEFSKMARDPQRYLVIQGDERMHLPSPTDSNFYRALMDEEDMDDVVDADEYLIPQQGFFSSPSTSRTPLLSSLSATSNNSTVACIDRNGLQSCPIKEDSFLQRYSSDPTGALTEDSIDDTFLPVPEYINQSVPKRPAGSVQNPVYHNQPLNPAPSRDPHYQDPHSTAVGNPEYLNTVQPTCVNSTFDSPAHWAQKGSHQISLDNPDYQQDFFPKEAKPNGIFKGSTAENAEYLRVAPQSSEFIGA

[27] = system: COLO205; assay: Inhibition of cancer cell growth as measured by cell number, COLO205; format: cell-based; conditions: Homo sapiens, COLO 205; cell number, Sulforhodamine B, 48 hours exposure; Table 4; read-out: IC50 COLO205
[28] = system: CACO2; assay: Inhibition of cancer cell growth as measured by cell number, CACO2; format: cell-based; conditions: Homo sapiens, Caco-2; cell number, Sulforhodamine B, 48 hours exposure; Table 5; read-out: IC50 CACO2
[29] = system: A2780DDP; assay: Inhibition of cancer cell growth as measured by cell number, A2780DDP; format: cell-based; conditions: Homo sapiens; cell number, Sulforhodamine B, 48 hours exposure; Table 4; read-out: IC50 A2780DDP
[30] = system: SKBR3; assay: Inhibition of cancer cell growth as measured by cell number, SKBR3; format: cell-based, human; conditions: Homo sapiens, SK-BR-3; cell number, Sulforhodamine B, 48 hours exposure; Table 8; read-out: IC50 SKBR3;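 note: SK-BR-3 cells were selected as a line overexpressing HER2/neu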
Text: as §4

[31] = system: HTB161; assay: Inhibition of cancer cell growth as measured by cell number, HTB161; format: cell-based; conditions: Homo sapiens; cell number, Sulforhodamine B, 48 hours exposure; Table 4; read-out: IC50 HTB161

## CCOC(=O)c1cnc2cc(OC)c(OC)cc2c1O [Example 26, 3-Carbethoxy-4-hydroxy-6.7-dimethoxyquinoline]
[1]; [3H]-thymidine incorporation
  IC50: > 50000 nM
[2]
  IC50: 400 nM
[3]
  IC50: > 50000 nM
[4]
  IC50: 100 nM

## COc1cc2ncc(C#N)c(Nc3cccc(Br)c3)c2cc1OC [Example 31, 4-[(3-Bromophenyl)amino]-6,7-dimethoxy-3-quinolinecarbonitrile]
[5]
  IC50: 5.48 µg/mL (≈ 14.3 µM)
[1]; Homo sapiens, SK-BR-3, [3H]-thymidine incorporation
  IC50: 25000 nM
[6]
  IC50: 2.03 µg/mL (≈ 5.28 µM)
[2]; Homo sapiens
  IC50: 3 nM
[7]
  IC50: 0.894 µg/mL (≈ 2.33 µM)
[8]; Table 6
  IC50: 0.434 µg/mL (≈ 1.13 µM)
[8]; Table 8
  IC50: 0.1 µg/mL (≈ 0.26 µM)
[9]
  IC50: 5.16 µg/mL (≈ 13.4 µM)
[10]
  IC50: 6.88 µg/mL (≈ 17.9 µM)
[11]
  IC50: 4.91 µg/mL (≈ 12.8 µM)
[12]
  IC50: 0.727 µg/mL (≈ 1.89 µM)
[13]
  IC50: 0.885 µg/mL (≈ 2.3 µM)
[14]
  IC50: 0.97 µg/mL (≈ 2.52 µM)
[15]; Table 5
  IC50: 5.66 µg/mL (≈ 14.7 µM)
[15]; Table 8
  IC50: 6.04 µg/mL (≈ 15.7 µM)
[16]; Table 4
  IC50: 4.54 µg/mL (≈ 11.8 µM)
[16]; Table 8
  IC50: 0.82 µg/mL (≈ 2.13 µM)
[17]
  IC50: 3.19 µg/mL (≈ 8.3 µM)
[18]
  IC50: 0.585 µg/mL (≈ 1.52 µM)
[19]
  IC50: 3.33 µg/mL (≈ 8.67 µM)
[20]
  IC50: 0.748 µg/mL (≈ 1.95 µM)
[21]
  IC50: 2.27 µg/mL (≈ 5.91 µM)
[22]
  IC50: 0.772 µg/mL (≈ 2.01 µM)
[23]
  IC50: 1.58 µg/mL (≈ 4.1 µM)
[24]; Table 6
  IC50: 0.871 µg/mL (≈ 2.27 µM)
[24]; Table 8
  IC50: 1.65 µg/mL (≈ 4.29 µM)
[25]
  IC50: 2.23 µg/mL (≈ 5.81 µM)
[26]
  IC50: 1.5 nM
[4]; Homo sapiens, A-431
  IC50: 200 nM
[27]
  IC50: 3.1 µg/mL (≈ 8.06 µM)
[28]
  IC50: 0.925 µg/mL (≈ 2.41 µM)
[29]
  IC50: 1.17 µg/mL (≈ 3.03 µM)
[30]
  IC50: 0.48 µg/mL (≈ 1.25 µM)
[31]
  IC50: 0.793 µg/mL (≈ 2.06 µM)
